These results are taken from patent US6686373B2, “Pyrazoloquinolinone derivatives as protein kinase C inhibitors” (Warner-Lambert Company LLC, priority 2001, dated 2004).

Counter-ions that a name gives are not always drawn.

Compound `CN(C)CCOc1ccc(Cc2ccc3[nH]c4cnn(C)c4c(=O)c3c2)cc1.Cl` had a melting point of 235 to 240 °C. With `Cl.Cn1ncc2[nH]c3ccc(Cc4cccc(N)c4)cc3c(=O)c21`, the melting point is 287 °C (dec.).

`Cl.Cn1ncc2[nH]c3ccc(Cc4ccccc4N)cc3c(=O)c21` had a melting point of 273 °C. To `Cl.Cn1ncc2[nH]c3ccc(Cc4ccc(CN)cc4)cc3c(=O)c21` belongs over 300 °C; to `Cl.Cn1ncc2[nH]c3ccc(Cc4cccc(CN)c4)cc3c(=O)c21`, over 300 °C. To `Cl.Cn1ncc2[nH]c3ccc(Cc4ccccc4CN)cc3c(=O)c21` belongs over 250 °C; to `Cl.Cn1ncc2[nH]c3ccc(Cc4cccnc4)cc3c(=O)c21`, 259 °C. `Cl.Cn1ncc2[nH]c3ccc(CCCN)cc3c(=O)c21` returned a melting point of over 300 °C. `CCCCCCn1c2ccc(C)cc2c(=O)c2c1cnn2C` returned a melting point of 80 to 82 °C. Turning to `Cc1ccc2c(c1)c(=O)c1c(cnn1C)n2CCCN(C)C.Cl`, the melting point amounted to 240 °C.

In turn, `Cc1ccc2c(c1)c(=O)c1c(cnn1C)n2CCN(C)C.Cl` returned a melting point of 255 °C.

Regarding `Cc1ccc2c(c1)c(=O)c1c(cnn1C)n2CCCCCCN(C)C.Cl`, the melting point was 210 °C. The compound `CCN(C)CCCn1c2ccc(C)cc2c(=O)c2c1cnn2C.Cl` gave a melting point of 213 °C. The value for `Cc1ccc2c(c1)c(=O)c1c(cnn1C)n2CCN.Cl` was over 280 °C; that for `Cn1ncc2[nH]c3c(c(=O)c21)CC(Cc1ccccc1)CC3` (stereo not drawn) (as salt: hydrochloride) was over 250 °C; that for `Cn1ncc2[nH]c3c(c(=O)c21)CC(Cc1ccc(Cl)cc1)CC3` (stereo not drawn) (as salt: hydrochloride) was 279 °C. To `Cn1ncc2[nH]c3ccc(F)cc3c(=O)c21` [Example 1, 7-FLUORO-1-METHYL-1,4-DIHYDRO-9H-PYRAZOLO[4,3-b]QUINOLIN-9-ONE] belongs 301 °C.

Regarding `Cn1ncc2[nH]c3c(F)cccc3c(=O)c21` [Example 2, 5-FLUORO-1-METHYL-1,4-DIHYDRO-9H-PYRAZOLO[4,3-b]QUINOLIN-9-ONE], the melting point is over 300 °C. To `Cn1ncc2[nH]c3cc(F)ccc3c(=O)c21` [Example 3, 6-FLUORO-1-METHYL-1,4-DIHYDRO-9H-PYRAZOLO[4,3-b]QUINOLIN-9-ONE] belongs 269 °C. Consider `Cn1ncc2[nH]c3cccc(F)c3c(=O)c21` [Example 4, 8-FLUORO-1-METHYL-1,4-DIHYDRO-9H-PYRAZOLO[4,3-b]QUINOLIN-9-ONE], for which the melting point was over 300 °C. Take `Cn1ncc2[nH]c3c(Br)cccc3c(=O)c21` [Example 5, 5-BROMO-1-METHYL-1,4-DIHYDRO-9H-PYRAZOLO[4,3-b]QUINOLIN-9-ONE]: the melting point was determined as 287 °C. To `CCc1ccc2[nH]c3cnn(C)c3c(=O)c2c1` [Example 6, 7-ETHYL-1-METHYL-1,4-DIHYDRO-9H-PYRAZOLO[4,3-b]QUINOLIN-9-ONE] belongs 266 °C. The value for `CCc1cccc2c(=O)c3c(cnn3C)[nH]c12` [Example 7, 5-ETHYL-1-METHYL-1,4-DIHYDRO-9H-PYRAZOLO[4,3-b]QUINOLIN-9-ONE] was 254 °C.

For `CCc1cccc2[nH]c3cnn(C)c3c(=O)c12` [Example 8, 8-ETHYL-1-METHYL-1,4-DIHYDRO-9H-PYRAZOLO[4,3-b]QUINOLIN-9-ONE], the melting point was determined as 250 °C. To `CCc1ccc2c(=O)c3c(cnn3C)[nH]c2c1` [Example 9, 6-ETHYL-1-METHYL-1,4-DIHYDRO-9H-PYRAZOLO[4,3-b]QUINOLIN-9-ONE] belongs 263 °C. To `Cn1ncc2[nH]c3ccc(Cc4ccccc4)cc3c(=O)c21` [Example 11, 7-BENZYL-1-METHYL-1,4-DIHYDRO-9H-PYRAZOLO[4,3-b]QUINOLIN-9-ONE] belongs 282 °C. The value for `Cc1ccc2[nH]c3c(N)nn(C)c3c(=O)c2c1` [Example 12, 3-AMINO-1,7-DIMETHYL-1,4-DIHYDRO-9H-PYRAZOLO[4,3-b]QUINOLIN-9-ONE] was over 300 °C; that for `Cn1ncc2[nH]c3ccc(Cc4ccccc4Cl)cc3c(=O)c21` [Example 15, 7-(2-CHLOROBENZYL)-1-METHYL-1,4-DIHYDRO-9H-PYRAZOLO[4,3-b]QUINOLIN-9-ONE] was 278 °C; that for `COc1ccc(Cc2ccc3[nH]c4cnn(C)c4c(=O)c3c2)cc1` [Example 16, 7-(4-METHOXYBENZYL)-1-METHYL-1,4-DIHYDRO-9H-PYRAZOLO[4,3-b]QUINOLIN-9-ONE] was 248 to 249 °C.

For `Cn1ncc2[nH]c3ccc(Cc4cccc(O)c4)cc3c(=O)c21` [Example 20, 7-(3-HYDROXYBENZYL)-1-METHYL-1,4-DIHYDRO-9H-PYRAZOLO[4,3-b]QUINOLIN-9-ONE], the melting point was over 270 °C. `COc1ccccc1Cc1ccc2[nH]c3cnn(C)c3c(=O)c2c1` [Example 21, 7-(2-METHOXYBENZYL)-1-METHYL-1,4-DIHYDRO-9H-PYRAZOLO[4,3-b]QUINOLIN-9-ONE] yielded a melting point of 255 °C.

As for `Cn1ncc2[nH]c3ccc(Cc4cccc([N+](=O)[O-])c4)cc3c(=O)c21` [Example 23, 1-METHYL-7-(3-NITROBENZYL)-1,4-DIHYDRO-9H-PYRAZOLO[4,3-b]QUINOLIN-9-ONE], the melting point fell in the range of 279 to 283 °C. The value for `Cn1ncc2[nH]c3ccc(Cc4ccc(C#N)cc4)cc3c(=O)c21` [Example 26, 4-[(1-METHYL-9-OXO-4,9-DIHYDRO-1H-PYRAZOLO[4,3-b]QUINOLIN-7-YL)METHYL]BENZONITRILE] was 291 °C. On to `Cn1ncc2[nH]c3ccc(Cc4cccc(C#N)c4)cc3c(=O)c21` [Example 28, 3-[(1-METHYL-9-OXO-4,9-DIHYDRO-1H-PYRAZOLO[4,3-b]QUINOLIN-7-YL)METHYL]BENZONITRILE], for which the melting point came out at 275 °C.

In turn, `Cn1ncc2[nH]c3ccc(Cc4cccc(C(N)=O)c4)cc3c(=O)c21` [Example 29, 3-[(1-METHYL-9-OXO-4,9-DIHYDRO-1H-PYRAZOLO[4,3-b]QUINOLIN-7-YL)METHYL]BENZAMIDE] returned a melting point of over 300 °C. The value for `Cn1ncc2[nH]c3ccc(Cc4cccc(C(=O)O)c4)cc3c(=O)c21` [Example 30, 3-[(1-METHYL-9-OXO-4,9-DIHYDRO-1H-PYRAZOLO[4,3-b]QUINOLIN-7-YL)METHYL]BENZOIC ACID] was over 300 °C; that for `Cn1ncc2[nH]c3ccc(Cc4ccccc4C(N)=O)cc3c(=O)c21` [Example 32, 2-[(1-METHYL-9-OXO-4,9-DIHYDRO-1H-PYRAZOLO[4,3-b]QUINOLIN-7-YL)METHYL]BENZAMIDE] was over 300 °C; that for `Cn1ncc2[nH]c3cccc(-c4ccc(O)cc4)c3c(=O)c21` [Example 38, 8-(4-HYDROXYPHENYL)-1-METHYL-1,4-DIHYDRO-9H-PYRAZOLO[4,3-b]QUINOLIN-9-ONE] was over 300 °C. The value for `Cn1ncc2[nH]c3cccc(-c4cccc(O)c4)c3c(=O)c21` [Example 39, 8-(3-HYDROXYPHENYL)-1-METHYL-1,4-DIHYDRO-9H-PYRAZOLO[4,3-b]QUINOLIN-9-ONE] was over 300 °C; that for `Cn1ncc2[nH]c3ccc(-c4cccc(O)c4)cc3c(=O)c21` [Example 40, 7-[3-HYDROXYPHENYL]-1-METHYL-1,4-DIHYDRO-9H-PYRAZOLO[4,3-b]QUINOLIN-9-ONE] was over 250 °C. `Cn1ncc2[nH]c3ccc(NC(=O)c4ccccc4)cc3c(=O)c21` [Example 46, N-(1-METHYL-9-OXO-4,9-DIHYDRO-1H-PYRAZOLO[4,3-b]QUINOLIN-7-YL)BENZAMIDE] showed a melting point of over 300 °C. Compound `CCCCn1c2ccc(C)cc2c(=O)c2c1cnn2C` [Example 48, 4-BUTYL-1,7-DIMETHYL-1,4-DIHYDRO-9H-PYRAZOLO[4,3-b]QUINOLIN-9-ONE] showed a melting point of 262 °C. To `Cc1ccc2c(c1)c(=O)c1c(cnn1C)n2CC#N` [Example 51, (1,7-DIMETHYL-9-OXO-1,9-DIHYDRO-4H-PYRAZOLO[4,3-b]QUINOLIN-4-YL)ACETONITRILE] belongs 214 to 219 °C.

Take `Cc1ccc2c(c1)c(=O)c1c(cnn1C)n2CC(N)=O` [Example 52, 2-(1,7-DIMETHYL-9-OXO-1,9-DIHYDRO-4H-PYRAZOLO[4,3-b]QUINOLIN-4-YL)ACETAMIDE]: the melting point is 247 to 252 °C.

Compound `CSCCn1c2ccc(C)cc2c(=O)c2c1cnn2C` [Example 53, 1,7-DIMETHYL-4-[2-(METHYLSULFANYL)ETHYL]-1,4-DIHYDRO-9H-PYRAZOLO[4,3-b]QUINOLIN-9-ONE] displayed a melting point of 125 °C.

Take `Cc1ccc2c(c1)c(=O)c1c(cnn1C)n2CCCNS(C)(=O)=O` [Example 60, N-[3-(1,7-DIMETHYL-9-OXO-1,9-DIHYDRO-4H-PYRAZOLO[4,3-b]QUINOLIN-4-YL)PROPYL]METHANESULFONAMIDE]: the melting point came to 179 °C. The value for `Cc1ccc2c(c1)c(=O)c1c(cnn1C)n2CCCl` [Example 62, 4-(2-CHLOROETHYL)-1,7-DIMETHYL-1,4-DIHYDRO-9H-PYRAZOLO[4,3-b]QUINOLIN-9-ONE] was 196 °C; that for `Cn1ncc2[nH]c3c(c(=O)c21)CCCC3` [Example 67, 1-METHYL-5,6,7,8-TETRAHYDRO-1H-PYRAZOLO[4,3-b]QUINOLIN-9-OL] was over 300 °C.
